Values quoted from earlier work as cited in US9579404B2, “Lanthanoid complex capsule and particle contrast agents, methods of making and using thereof” (New York University, priority 2011, dated 2017).

Details: in H2O at 9.4 T (400 MHz), 25° C.; from Siddiqui et al. 2009

O=C([O-])CN(CCN(CC(=O)[O-])CC(=O)[O-])CCN(CC(=O)[O-])CC(=O)[O-].[Gd+3] [Gd[DTPA]^2−, gadolinium diethylenetriamine-N,N,N′,N″N″-pentaacetate]
Relaxivity (r1) per Gd: 4.6^a s^−1mM^−1
